This note sets out measurements from PubChem BioAssay (NCI).

Some test systems named below: OVCAR-8 ovarian; 786-0 renal; A549 NSCLC; HT29 colon; RPMI-8226 leukemia; EKVX NSCLC; COLO 205 colon; NCI-H522 lung; IGROV1 ovarian; HCT-116 colon.
Assay in all cases: inhibition of tumour cell growth, NCI panel, 48 h

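Results reflect a 48-hour exposure of cells in 96-well plates to compound at five concentrations. GI50 is the concentration that inhibits growth by half. The concentration for full growth arrest is given as TGI.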

Take `COc1cc(C)c(N(C)C(=O)CN(C)C)cc1Nc1nc(Nc2cccc(F)c2C(N)=O)c2cc[nH]c2n1`: the GI50 with OVCAR-8 ovarian is above 25 µM; in the assay with 786-0 renal, above 25 µM; in the assay with A549 NSCLC it was above 25 µM; in the assay with HT29 colon, 1370 nM; in the assay on RPMI-8226 leukemia, above 22000 nM; with EKVX NSCLC, above 25 µM. Besides, the GI50 with COLO 205 colon is 5.63 µM; in the assay on NCI-H522 lung, above 25 µM; with IGROV1 ovarian it was above 25 µM; with HCT-116 colon, 15.7 µM. Besides, the TGI in the assay on OVCAR-8 ovarian, in the assay with 786-0 renal, with A549 NSCLC, in the assay with HT29 colon, with RPMI-8226 leukemia and in the assay with EKVX NSCLC was above 25 µM throughout. Moreover, the TGI in the assay on COLO 205 colon, in the assay with NCI-H522 lung, in the assay with IGROV1 ovarian and with HCT-116 colon was above 25 µM each time.

With `CCC1N2CCCCC2[C@@H]2c3[nH]c4ccccc4c3CCN12` (some centres undefined), the TGI in the assay with OVCAR-8 ovarian, in the assay on 786-0 renal, in the assay with A549 NSCLC, with HT29 colon, with RPMI-8226 leukemia and in the assay on EKVX NSCLC was above 100 µM each time. For the same molecule, the TGI in the assay on COLO 205 colon, with NCI-H522 lung, in the assay with IGROV1 ovarian and in the assay on HCT-116 colon was above 100 µM in each case.

As to `O=c1cc(-c2ccccc2)oc2cc(OCc3cn(Cc4ccc(F)cc4)nn3)cc(O)c12`, the GI50 in the assay with OVCAR-8 ovarian is 3.76 µM; with 786-0 renal it was 9.26 µM; in the assay with A549 NSCLC it was 19.6 µM; in the assay on HT29 colon it was above 100000 nM; in the assay with RPMI-8226 leukemia, above 100000 nM; in the assay on EKVX NSCLC, 63.8 µM. In addition, the GI50 in the assay with COLO 205 colon is above 100 µM; in the assay on NCI-H522 lung, 6.6 µM; with IGROV1 ovarian it was 17.6 µM; in the assay on HCT-116 colon, 5.91 µM. The TGI in the assay on OVCAR-8 ovarian was above 100 µM; with 786-0 renal, 42.1 µM; in the assay with A549 NSCLC it was above 100 µM; in the assay with HT29 colon it was above 100 µM; in the assay with RPMI-8226 leukemia it was above 100 µM; with EKVX NSCLC, above 100 µM. For the same molecule, the TGI in the assay on COLO 205 colon, in the assay on NCI-H522 lung, in the assay with IGROV1 ovarian and in the assay on HCT-116 colon was above 100 µM throughout.

With `COC(=O)/C1=C/C2CC(/C=C(/c3ccccc3)C(=O)O1)C2`, the TGI is 80.6 µM in the assay on OVCAR-8 ovarian; 89.1 µM with 786-0 renal; above 100 µM with A549 NSCLC; 65.4 µM in the assay with HT29 colon; 64.7 µM in the assay on RPMI-8226 leukemia; above 100 µM in the assay with EKVX NSCLC. Moreover, the TGI in the assay with COLO 205 colon was 41.7 µM; in the assay on NCI-H522 lung, 37.9 µM; with IGROV1 ovarian, above 100 µM; in the assay with HCT-116 colon, 56.6 µM.

With `COc1cc([N+](=O)[O-])c(S(=O)(=O)O)cc1-n1nc(-c2ccccc2)n[n+]1-c1cc(S(=O)(=O)[O-])c([N+](=O)[O-])cc1OC`, the TGI with OVCAR-8 ovarian, in the assay on 786-0 renal, in the assay with A549 NSCLC, in the assay with HT29 colon, in the assay with RPMI-8226 leukemia and in the assay with EKVX NSCLC was above 100 µM each time. The TGI in the assay with COLO 205 colon, in the assay on NCI-H522 lung, in the assay on IGROV1 ovarian and in the assay on HCT-116 colon was above 100 µM each time.

Consider `CCCCC/C=C1\CCC(CN2CCOCC2)C1=O` (centres undefined), for which the TGI in the assay with OVCAR-8 ovarian was 13 µM; in the assay with 786-0 renal it was 7.17 µM; with A549 NSCLC, 39.4 µM; with HT29 colon it was 35.7 µM; in the assay on RPMI-8226 leukemia it was 3.02 µM; with EKVX NSCLC, 29.7 µM. The TGI was found to be 13.7 µM in the assay with COLO 205 colon, 5.18 µM in the assay on NCI-H522 lung, 33 µM in the assay on IGROV1 ovarian and 54.9 µM in the assay on HCT-116 colon.

In the case of `COc1ccccc1NC(=O)N/C(N)=N/c1nc2ccccc2s1`, the GI50 with OVCAR-8 ovarian is 0.262 µM; in the assay on 786-0 renal, 0.288 µM; in the assay with A549 NSCLC, 0.107 µM; with HT29 colon, 38.9 nM; in the assay with RPMI-8226 leukemia, 163 nM; with EKVX NSCLC, 0.409 µM. For the same molecule, the GI50 with COLO 205 colon was 0.254 µM; in the assay on NCI-H522 lung it was 0.025 µM; with IGROV1 ovarian, 0.0884 µM; with HCT-116 colon it was 0.0497 µM. In addition, the TGI in the assay on OVCAR-8 ovarian was above 100 µM; in the assay with 786-0 renal it was above 100 µM; with A549 NSCLC, above 100 µM; in the assay on HT29 colon, above 100 µM; in the assay on RPMI-8226 leukemia, above 72.4 µM; in the assay on EKVX NSCLC, above 100 µM. The TGI in the assay with COLO 205 colon, in the assay with IGROV1 ovarian and in the assay with HCT-116 colon was above 100 µM each time.

With `CCC(=O)[O-].CCC(=O)[O-].N.N.N.N.[Co+3].[O-][Cl+3]([O-])([O-])[O-]`, the GI50 in the assay on OVCAR-8 ovarian was above 100 µM; with 786-0 renal, above 100 µM; with A549 NSCLC it was above 100 µM; in the assay on HT29 colon, above 100000 nM; in the assay on RPMI-8226 leukemia it was above 100000 nM; in the assay on EKVX NSCLC, above 100 µM. Also, the GI50 in the assay with COLO 205 colon, with NCI-H522 lung, in the assay with IGROV1 ovarian and in the assay with HCT-116 colon was above 100 µM each time. Moreover, the TGI in the assay with OVCAR-8 ovarian, with 786-0 renal, with A549 NSCLC, in the assay on HT29 colon, in the assay on RPMI-8226 leukemia and in the assay on EKVX NSCLC was above 100 µM throughout. The TGI with COLO 205 colon, in the assay on NCI-H522 lung, in the assay on IGROV1 ovarian and in the assay with HCT-116 colon was above 100 µM throughout.

Take `C=C(C)[C@@H]1CC[C@]2(c3ncc(C)o3)CC[C@]3(C)[C@H](CC[C@@H]4[C@@](C)(CCC#N)[C@H](C(=C)C)CC[C@]43C)[C@@H]12`: the GI50 in the assay with OVCAR-8 ovarian is 6.57 µM; in the assay on 786-0 renal, 8.23 µM; in the assay with A549 NSCLC, 6.19 µM; with HT29 colon, 3810 nM; in the assay with RPMI-8226 leukemia, 2440 nM; in the assay on EKVX NSCLC, 3.13 µM. For the same molecule, the GI50 was 5.79 µM in the assay on COLO 205 colon, 1.9 µM in the assay on NCI-H522 lung, 5.07 µM in the assay with IGROV1 ovarian and 4.41 µM in the assay on HCT-116 colon. The TGI in the assay on OVCAR-8 ovarian came to 21.9 µM; with 786-0 renal, 23.4 µM; in the assay with A549 NSCLC it was 22.3 µM; in the assay with HT29 colon, 14.8 µM; with RPMI-8226 leukemia, 6.9 µM; with EKVX NSCLC, 12.6 µM. Further, the TGI came to 21.4 µM with COLO 205 colon, 4.16 µM with NCI-H522 lung, 19.1 µM in the assay on IGROV1 ovarian and 16.4 µM with HCT-116 colon.
